Reference: US8138168B1 (Takeda Pharmaceutical Company Limited, priority 2007, dated 2012)

Biological target: T1, Recombinant human renin (Homo sapiens, UniProt P00797)
T1 construct: isolate the active form (residues 67-406); made in house; host or cells: FreeStyle 293-F cells (transient expression of pcDNA3.1(+)/hREN)
T1 sequence (P00797 67-406): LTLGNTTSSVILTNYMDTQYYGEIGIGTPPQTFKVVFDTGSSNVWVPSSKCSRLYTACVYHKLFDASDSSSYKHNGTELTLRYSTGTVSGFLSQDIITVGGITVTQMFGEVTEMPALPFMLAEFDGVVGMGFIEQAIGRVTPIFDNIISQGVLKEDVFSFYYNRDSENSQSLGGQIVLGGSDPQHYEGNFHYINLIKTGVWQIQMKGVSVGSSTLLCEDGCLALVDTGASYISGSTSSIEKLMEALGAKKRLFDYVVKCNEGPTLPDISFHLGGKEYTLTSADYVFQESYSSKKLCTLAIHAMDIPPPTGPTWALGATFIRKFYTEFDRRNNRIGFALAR
Test: In vitro enzymatic activity assay of renin inhibitors (fluorogenic peptide substrate)
Format: biochemical
Conditions: read-out: IC50 of Exemplified Compounds Against Renin
In short: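 Recombinant human renin (3 nM final) pre-incubated 10 min at 37 °C with compounds in pH 7.4 Hepes/EDTA/DTT/0.1 mg/mL BSA/Brij35 buffer (optionally plus 2% BSA), 5% DMSO final; fluorogenic QXL520/HiLyteFluo488 peptide substrate added.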

| IC50 | Structure (SMILES) |
| --- | --- |
| > 1 µM | CC[C@H](C)[C@H](N)C(=O)N1CCCC(c2nc3ccccc3[nH]2)C1 (stereo partly drawn) [Compound 48, (2S,3S)-1-(3-(1H-benzo[d]imidazol-2-yl)piperidin-1-yl)-2-amino-3-methylpentan-1-one] |
| > 1 µM | CC[C@@H](N)C(=O)N1CCCC(c2nc3ccccc3[nH]2)C1 (stereo partly drawn) [Compound 51, (2R)-1-(3-(1H-benzo[d]imidazol-2-yl)piperidin-1-yl)-2-aminobutan-1-one] |
| 0.1 to 1 µM | COCCCn1c([C@@H]2CCCN(C(=O)C[C@H](N)CNC(=O)Nc3ccccc3SC)C2)nc2ccccc21 [Compound 284, 1-((S)-2-amino-4-((R)-3-(1-(3-methoxypropyl)-1H-benzo[d]imidazol-2-yl)piperidin-1-yl)-4-oxobutyl)-3-(2-(methylthio)phenyl)urea] |
| > 1 µM | COCCCn1c([C@@H]2CCCN(C(=O)[C@@H]3CN(S(=O)(=O)c4cc(Br)ccc4OC)C[C@H]3N)C2)nc2ccccc21 [Compound 401, ((3R,4S)-4-amino-1-(5-bromo-2-methoxyphenylsulfonyl)pyrrolidin-3-yl)((R)-3-(1-(3-methoxypropyl)-1H-benzo[d]imidazol-2-yl)piperidin-l-yl)methanone] |
| 0.1 to 1 µM | COCCCn1c([C@@H]2CCCN(C(=O)[C@@H]3CN(S(=O)(=O)c4cccc(Cl)c4)C[C@H]3N)C2)nc2ccccc21 [Compound 351, ((3R,4S)-4-amino-1-(3-chlorophenylsulfonyl)pyrrolidin-3-yl)((R)-3-(1-(3-methoxypropyl)-1H-benzo[d]imidazol-2-yl)piperidin-1-yl)methanone] |
| 0.1 to 1 µM | NC(=O)CCn1c([C@@H]2CCCN(C(=O)C[C@H](N)Cc3ccc(-c4ccncc4)cc3)C2)nc2ccccc21 [Compound 488, 3-(2-((R)-1-((R)-3-amino-4-(4-(pyridin-4-yl)phenyl)butanoyl)piperidin-3-yl)-1H-benzo[d]imidazol-1-yl)propanamide] |
| 0.1 to 1 µM | COCCCn1c([C@@H]2CCCN(C(=O)C[C@H](N)CNC(=O)c3cccc(N4CCCCC4)n3)C2)nc2ccccc21 [Compound 313, N-((S)-2-amino-4-((R)-3-(1-(3-methoxypropyl)-1H-benzo[d]imidazol-2-yl)piperidin-1-yl)-4-oxobutyl)-6-(piperidin-1-yl)picolinamide] |
| > 1 µM | COCCCn1c([C@@H]2CCCN(C(=O)[C@@H]3CN(S(=O)(=O)c4cccc5c4ccn5C)C[C@H]3N)C2)nc2ccccc21 [Compound 392, ((3R,4S)-4-amino-1-(1-methyl-1H-indol-4-ylsulfonyl)pyrrolidin-3-yl)((R)-3-(1-(3-methoxypropyl)-1H-benzo[d]imidazol-2-yl)piperidin-1-yl)methanone] |
| 0.1 to 1 µM | COCCCn1c([C@@H]2CCCN(C(=O)C[C@H](N)CNC(=O)c3ccc(-c4cccc([N+](=O)[O-])c4)o3)C2)nc2ccccc21 [Compound 297, N-((S)-2-amino-4-((R)-3-(1-(3-methoxypropyl)-1H-benzo[d]imidazol-2-yl)piperidin-1-yl)-4-oxobutyl)-5-(3-nitrophenyl)furan-2-carboxamide] |
| 0.1 to 1 µM | CC(=O)NCCn1c([C@@H]2CCCN(C(=O)C[C@H](N)Cc3ccc(-c4ccc5c(c4)NC(=O)CO5)cc3)C2)nc2ccccc21 [Compound 469] |
| > 1 µM | COCCCn1c([C@@H]2CCCN(C(=O)[C@@H]3CN(S(=O)(=O)c4cccc(-c5noc(C)n5)c4)C[C@H]3N)C2)nc2ccccc21 [Compound 409, ((3R,4S)-4-amino-1-(3-(5-methyl-1,2,4-oxadiazol-3-yl)phenylsulfonyl)pyrrolidin-3-yl)((R)-3-(1-(3-methoxypropyl)-1H-benzo[d]imidazol-2-yl)piperidin-1-yl)methanone] |
| < 0.1 µM | COCCCn1c([C@@H]2CCCN(C(=O)C[C@H](N)Cc3ccc(-c4ccc(N(C)C)cc4)cc3)C2)nc2ccccc21 [Compound 161, (R)-3-amino-4-(4′-(dimethylamino)biphenyl-4-yl)-1-((R)-3-(1-(3-methoxypropyl)-1H-benzo[d]imidazol-2-yl)piperidin-1-yl)butan-1-one] |
| < 0.1 µM | COCCCn1c([C@@H]2CCCN(C(=O)C[C@H](N)Cc3ccc(-n4c(=O)n(CCOC)c5ccccc54)cc3)C2)nc2ccccc21 [Compound 214, 1-(4-((R)-2-amino-4-((R)-3-(1-(3-methoxypropyl)-1H-benzo[d]imidazol-2-yl)piperidin-1-yl)-4-oxobutyl)phenyl)-3-(2-methoxyethyl)-1H-benzo[d]imidazol-2(3H)-one] |
| 0.1 to 1 µM | COCCCn1c([C@@H]2CCCN(C(=O)C[C@H](N)CNC(=O)Nc3ccc(Cl)cc3)C2)nc2ccccc21 [Compound 283, 1-((S)-2-amino-4-((R)-3-(1-(3-methoxypropyl)-1H-benzo[d]imidazol-2-yl)piperidin-1-yl)-4-oxobutyl)-3-(4-chlorophenyl)urea] |
| < 0.1 µM | COCCCNC(=O)c1ccc(-c2ccc(C[C@@H](N)CC(=O)N3CCC[C@@H](c4nc5ccccc5n4CCCOC)C3)cc2)cc1 [Compound 180, 4′-((R)-2-amino-4-((R)-3-(1-(3-methoxypropyl)-1H-benzo[d]imidazol-2-yl)piperidin-1-yl)-4-oxobutyl)-N-(3-methoxypropyl)biphenyl-4-carboxamide] |
| > 1 µM | N[C@@H](CC(=O)N1CCCC(c2nc3ccccc3[nH]2)C1)c1ccccc1[N+](=O)[O-] (stereo partly drawn) [Compound 26, (3S)-1-(3-(1H-benzo[d]imidazol-2-yl)piperidin-1-yl)-3-amino-3-(2-nitrophenyl)propan-1-one] |
| < 0.1 µM | COCCCn1c([C@@H]2CCCN(C(=O)C[C@H](N)Cc3ccc(-c4ccc(C(=O)N[C@@H](C)CO)cc4)cc3)C2)nc2ccccc21 [Compound 187, 4′-((R)-2-amino-4-((R)-3-(1-(3-methoxypropyl)-1H-benzo[d]imidazol-2-yl)piperidin-1-yl)-4-oxobutyl)-N-((S)-1-hydroxypropan-2-yl)biphenyl-4-carboxamide] |
| 0.1 to 1 µM | COCCCn1c([C@@H]2CCCN(C(=O)[C@@H]3CN(S(=O)(=O)c4ccc(OC)cc4)C[C@H]3N)C2)nc2ccccc21 [Compound 369, ((3R,4S)-4-amino-1-(4-methoxyphenylsulfonyl)pyrrolidin-3-yl)((R)-3-(1-(3-methoxypropyl)-1H-benzo[d]imidazol-2-yl)piperidin-1-yl)methanone] |
| 0.1 to 1 µM | COCCCn1c([C@@H]2CCCN(C(=O)C[C@H](N)CNS(=O)(=O)c3ccc(OC)cc3)C2)nc2ccccc21 [Compound 321, N-((S)-2-amino-4-((R)-3-(1-(3-methoxypropyl)-1H-benzo[d]imidazol-2-yl)piperidin-1-yl)-4-oxobutyl)-4-methoxybenzenesulfonamide] |
| > 1 µM | COCCCn1c([C@@H]2CCCN(C(=O)[C@@H]3CN(C(=O)c4cccc(F)c4)C[C@H]3N)C2)nc2ccccc21 [Compound 393, ((3R,4S)-4-amino-1-(3-fluorobenzoyl)pyrrolidin-3-yl)((R)-3-(1-(3-methoxypropyl)-1H-benzo[d]imidazol-2-yl)piperidin-1-yl)methanone] |
| < 0.1 µM | COCCCn1c([C@@H]2CCCN(C(=O)C[C@H](N)Cc3ccc(-c4csc(OC)n4)cc3)C2)nc2ccccc21 [Compound 201, (R)-3-amino-1-((R)-3-(1-(3-methoxypropyl)-1H-benzo[d]imidazol-2-yl)piperidin-1-yl)-4-(4-(2-methoxythiazol-4-yl)phenyl)butan-1-one] |
